The assay deals with dairy cows having a high milk performance (German Holstein cattle). Briefly: Feeding study of trans-hex-2-enal and hexanal on feed intake, feed intake behavior, milk performance and milk composition of dairy cows. It is filed as in vivo. The note with it: for FMI (fresh matter intake): 4.3 g/cow/day in TMR via wheat bran premix, control 43.6; for FMI (fresh matter intake) / Milk protein yield / Milk fat yield / DMI (% of BW) / Milk protein / Milk fat / DMI / ECM (energy-corrected milk) / Milk yield / Eating period / Frequency of visits: LSQ means; for FMI (fresh matter intake) / DMI / Eating period: p < 0.05; for Milk protein yield / Milk fat yield / DMI (% of BW) / Milk protein / Milk fat / DMI / ECM (energy-corrected milk) / Milk yield / Eating period / Frequency of visits: 4.3 g/cow/day in TMR; for Milk protein yield: control 1.04; for Milk fat yield: control 1.16; for DMI (% of BW): control 3.3; for Milk protein: control 3.36; for Milk fat: control 3.69; for DMI: control 22.2; for ECM (energy-corrected milk): control 30.2; for Milk yield: control 31.6; for Eating period: control 184; for Frequency of visits: visits to feed trough per day, control 33.1, p < 0.0001; for dry matter intake (DMI) compared with the control group, in words: A vs control p<0.067, B vs control p<0.0234; for visits to the feed trough: control 33.1 visits per day; for fresh matter intake (FMI) compared with the control group, in words: p<0.0001; for more frequent visits to the feed trough than the control group: per day, versus control group. The procedure: The purpose of the present study is to establish whether 4.3 g/cow/day of trans-hex-2-enal or 4.3 g/cow/day of hexanal affect the DMI value, the milk performance, the milk composition or the feed intake behavior (duration, frequency, etc.) of dairy cows.
The start of the study was calendar week 18 of the experimental year and the end of the study was calendar week 24 of the same year. The feed consumption was determined by means of feed troughs with electronic weight determination, produced by Insentec B.V. (Marknesse, Netherlands). The system identifies each animal by scanning the respective transponder on the neck band of the respective cow using a light barrier. After identification, the animal is allowed free access to the feed trough and the amount of feed taken in on each visit to the trough is recorded automatically.
The system thus determines all visits of each cow to the feed trough, the respective feed intake and the duration of the respective visit. The feed troughs were filled once a day at about 06.30 hours in the morning with an amount of about 70 kg of feed, after the residual feed of the previous day had been removed. During the morning milking, the feed troughs were closed for cleaning for a period of 20 to 30 minutes.
The milk yield was determined individually during each milking process and recorded by the Herd Management Software DairyPlan C21 (GEA Farm Technologies, Boenen, Germany). The cows were milked twice daily at 05.00 hours in the morning and 15.30 hours in the afternoon. Fresh water was freely available at all times.
Every Monday, after each milking, milk samples were taken and, for each cow, the milk composition (fat, protein, somatic cell count) was determined. The energy-corrected milk value (ECM) was determined according to the following equation: […]
All of the cows received a total mixed ration (TMR) (table 2) having a calculated mean daily feed intake of 22 kg of dry matter (DM). Trans-hex-2-enal and hexanal were added to the TMR and thus fed by a premix with wheat bran (trans-hex-2-enal/wheat bran for group A and hexanal/wheat bran for group B).
Samples of the TMR were withdrawn daily from each of the rations, combined to form a weekly sample and frozen until determination of the DM content of the TMRs. Samples of all feed components were taken every 14 days, frozen and pooled over the entire feeding trial up until laboratory analysis.
A standard model for statistical analysis using all parameters was adapted to the weekly data. This is a general, linear, mixed model with the cow as a chance effect and containing the following co-variables:
For the treatment effect, an “overall” P value was presented, and also a P value for the differences between the groups, which were tested both adapted and also non-adapted by means of the Tukey test.

Entries after “also recorded” stand apart in the source; their conditions may differ. Marks after values point to notes of the source that are not given here.

Regarding `CCCCCC=O` [Hexanal, hexanal], the “FMI (fresh matter intake)” value is given as 48.3^b kg/d, the Milk protein yield came out at 1.06 kg/day, the Milk fat yield was found to be 1.22 kg/day and the “DMI (% of BW)” value is 3.7 % of BW. The Milk protein is 3.28%, the Milk fat amounted to 3.77%, the DMI is 23.8^b kg/d and the “ECM (energy-corrected milk)” value stood at 31.3 kg/day. The Milk yield worked out at 32.7 kg/day, the Eating period is reported as 212^b min and the Frequency of visits is on record as 45.2^b. Moreover, under “4.3 g/cow/day”, the “daily FMI value, mean” value was found to be 48.3 kg FMI per day; the “daily milk production and milk composition compared with the control group, in words” value is “no differences”; the “dry matter intake (DMI) compared with the control group, in words” value was “significant advantage”; the “visits to the feed trough” value is 45.2 times per day. Where the note is “4.3 g/cow/day”, the “fresh matter intake (FMI) compared with the control group, in words” value was “higher; also recorded: significantly increased” and the “more frequent visits to the feed trough than the control group” value turned out to be 37%.
On to `CCC/C=C/C=O` [Trans-hex-2-enal], for which the “FMI (fresh matter intake)” value is on record as 47.8^b kg/d, the Milk protein yield stood at 1.06 kg/day, the Milk fat yield came to 1.19 kg/day and the “DMI (% of BW)” value is on record as 3.6 % of BW. In addition, the Milk protein was determined as 3.26%, the Milk fat is 3.66%, the DMI is 23.5^ab kg/d and the “ECM (energy-corrected milk)” value worked out at 31.1 kg/day. For the same compound, the Milk yield worked out at 33.1 kg/day, the Eating period is 206^ab min and the Frequency of visits is 48.6^b. Also, where the note is “4.3 g/cow/day”, the “daily milk production and milk composition compared with the control group, in words” value is on record as “no differences”; the “dry matter intake (DMI) compared with the control group, in words” value is listed as “significant advantage”; the “visits to the feed trough” value is 48.6 times per day; the “fresh matter intake (FMI) compared with the control group, in words” value was “higher; also recorded: significantly increased”. For the same compound, under “4.3 g/cow/day”, the “more frequent visits to the feed trough than the control group” value was 47%.

Values taken from patent US20150305372A1, “FEED INTAKE OF RUMINANTS USING GREEN FODDER FLAVORS” (BASF SE, priority 2014, published 2015).
